In US11191717B2, “Topical therapy for the treatment of skin malignancies using nanoparticles of taxanes” (DFB SORIA, LLC, priority 2017, dated 2021):
Read-outs that look alike come from different tables or passages of the source. Each block holds one molecule with its values, some of them ahead of it.

Tests used:
[1] = Particle size analysis of paclitaxel nanoparticles lots (ACCUSIZER 780); type: physicochemical; settings: nanoparticle API in 0.1% w/w SDS solution
Experimental: Instrument parameters: Max. Concentration: 9000 particles/mL, No. containers: 1, Sensor Range: Summation, Lower Detection Limit: 0.5 μm, Flow Rate: 30 mL/min, No. Analysis pulls: 4, Time between pulls: 1 sec, Pull volume: 10 mL, Tare Volume: 1 mL, Prime volume: 1 mL, Include First Pull: Not Selected.
Vortexed for 5-10 minutes and sonicated in a water batch for 1 minute.
Method: Filled a plastic bottle with filtered (0.22 μm) 0.1% w/w SDS solution and analyzed the Background.

[2] = methanol/water 15/85 (v/v), 37° C., pH 7, 75 rpm, cited from earlier work
[3] = Observations of paclitaxel nanoparticle crystals in various substances and solutions of substances (light microscopy); type: physicochemical
[4] = test system: intact human cadaver skin; assay: In vitro skin penetration diffusion study (Franz diffusion cell); type: in vitro ADME; settings: results in Table 14 (formulas F1 through F13)
Experimental: The skin was centered and the edges flattened out. […] Additional receptor fluid was added where necessary.
Cells were left uncapped during the experiment.

Structure (SMILES): CC(=O)O[C@H]1C(=O)[C@@]2(C)[C@H]([C@H](OC(=O)c3ccccc3)[C@]3(O)C[C@H](OC(=O)[C@H](O)[C@@H](NC(=O)c4ccccc4)c4ccccc4)C(C)=C1C3(C)C)[C@]1(OC(C)=O)CO[C@@H]1C[C@@H]2O [Paclitaxel nanoparticles lot used in formulas listed in Tabl] [listing 1 of 2 here]
- Particle size, Mean (number-weighted differential distribution) [1]: 0.83 μm

Structure (SMILES): CC(=O)O[C@@]12CO[C@@H]1C[C@H](O)[C@@]1(C)C(=O)[C@H](O)C3=C(C)[C@@H](OC(=O)[C@H](O)[C@@H](NC(=O)OC(C)(C)C)c4ccccc4)C[C@@](O)([C@@H](OC(=O)c4ccccc4)[C@H]21)C3(C)C [docetaxel nanoparticles, docetaxel]
- dissolution rate, dissolved in 30 minutes ([2]; made by milling): 9%
- dissolution rate, dissolved in 30 minutes ([2]; made by the supercritical carbon dioxide method): 27%

Further lines, results first:

- Visual observation by light microscopy- Needle shaped crystals observed? ([3]; in Aluminum sulfate 0.1-0.2% in water, @ 7 days, RT): Yes, >5 μm, @
- Visual observation by light microscopy- Needle shaped crystals observed? ([3]; in Ammonium lauryl sulfate 2% in water, @ 3 days, RT): Yes, >5 μm @
- Visual observation by light microscopy- Needle shaped crystals observed? ([3]; in Benzalkonium chloride (50%) 2% in water, @ 7 days & 21 days, RT): No, <5 μm @
- Visual observation by light microscopy- Needle shaped crystals observed? ([3]; in CARBOPOL ULTREZ 10 (with Ammonium hydroxide as neutralizer) 0.5% in water, @ 8 days & 21 days, RT): No, <5 μm, @ 8
- Visual observation by light microscopy- Needle shaped crystals observed? ([3]; in Castor Oil 100%, @ 24 hrs & 9 days, RT): No, <5 μm @ 24
- Visual observation by light microscopy- Needle shaped crystals observed? ([3]; in Dimethicone, 1000 cSt 100%, @ 24 hrs & 6 days, RT): No, <5 μm @ 24
- Visual observation by light microscopy- Needle shaped crystals observed? ([3]; in FOMBLIN HC04 100%, @ 4, 7 & 13 days, RT): No, <5 μm @ 4,
- Visual observation by light microscopy- Needle shaped crystals observed? ([3]; in Hydroxyethyl cellulose 1% in water, @ 7 days, RT): Yes, >5 μm, @
- Visual observation by light microscopy- Needle shaped crystals observed? ([3]; in Hydroxypropyl methylcellulose 1% in water, @ 3 days, RT): Yes, >5 μm @
- Visual observation by light microscopy- Needle shaped crystals observed? ([3]; in Lecithin 1% in water, @ 24 hrs, RT): Yes, >10 μm, @
- Visual observation by light microscopy- Needle shaped crystals observed? ([3]; in Light Mineral Oil NF 100%, @ 3 days, RT & 40 C.): No, <5 μm @ 3
- Visual observation by light microscopy- Needle shaped crystals observed? ([3]; in Magnesium nitrate 5% in water, @ 3 days, RT): Yes, >5 μm @
- Visual observation by light microscopy- Needle shaped crystals observed? ([3]; in Mannitol 5% in water, @ 7 days, RT): Yes, >5 μm, @
- Visual observation by light microscopy- Needle shaped crystals observed? ([3]; in Mineral Oil USP (heavy) 100%, @ 3 days, RT & 40 C.): No, <5 μm @ 3
- Visual observation by light microscopy- Needle shaped crystals observed? ([3]; in PEG 400 10% in water, @ 22 days, RT & 60 C.): Yes, >5 μm @ 22
- Visual observation by light microscopy- Needle shaped crystals observed? ([3]; in Poloxamer 188 2% in water, @ 7 days, RT): Yes, >5 μm @ 7
- Visual observation by light microscopy- Needle shaped crystals observed? ([3]; in Poloxamer 407 2% in water, @ 5 & 7 days, RT): No, <5 μm @
- Visual observation by light microscopy- Needle shaped crystals observed? ([3]; in Polyoxyl 40 Hydrogenated Castor Oil (KOLLIPHOR RH40) 1% in water, @ 6 days, RT): Yes, <5 μm @ 6
- Visual observation by light microscopy- Needle shaped crystals observed? ([3]; in Polysorbate 80 0.5% in Saline, @ 7 days, RT & 60 C.): Yes, >5 μm @
- Visual observation by light microscopy- Needle shaped crystals observed? ([3]; in Polysorbate 80 0.5% in water, @ 22 days, RT & 60 C.): Yes, <5 μm @ 22
- Visual observation by light microscopy- Needle shaped crystals observed? ([3]; in Povidone 1% in water, @ 7 days & 21 days, RT): Yes, <5 μm @ 7
- Visual observation by light microscopy- Needle shaped crystals observed? ([3]; in Proline 3% in water, @ 7 days, RT): Yes, >5 μm, @
- Visual observation by light microscopy- Needle shaped crystals observed? ([3]; in Purified Water 100%, @ 5 days, RT & 60 C.): Yes, >5 μm, @ 5
- Visual observation by light microscopy- Needle shaped crystals observed? ([3]; in ST-Cyclomethicone 5 NF 100%, @ 24 hrs & 13 days, RT): No, <5 μm @ 24
- Visual observation by light microscopy- Needle shaped crystals observed? ([3]; in Saline 0.9% NaCl in water, @ 7 days, RT & 60 C.): Yes, >10 μm, @
- Visual observation by light microscopy- Needle shaped crystals observed? ([3]; in Sodium lauryl sulfate 2% in water, @ 7 days, RT): Yes, >5 μm, @
- Visual observation by light microscopy- Needle shaped crystals observed? ([3]; in Sodium phosphate monobasic 0.75% in water, @ 7 days, RT): Yes, >5 μm, @
- Visual observation by light microscopy- Needle shaped crystals observed? ([3]; in Sorbitol 5% in water, @ 7 days, RT): Yes, >5 μm, @
- Visual observation by light microscopy- Needle shaped crystals observed? ([3]; in Vitamin E TPGS 0.5% in water, @ 6 days, RT): Yes, <5 μm @ 6
- Visual observation by light microscopy- Needle shaped crystals observed? ([3]; in Zinc acetate […] in water, @ 7 days, RT): Yes, >5 μm, @
Structure (SMILES): CC(=O)O[C@H]1C(=O)[C@@]2(C)[C@H]([C@H](OC(=O)c3ccccc3)[C@]3(O)C[C@H](OC(=O)[C@H](O)[C@@H](NC(=O)c4ccccc4)c4ccccc4)C(C)=C1C3(C)C)[C@]1(OC(C)=O)CO[C@@H]1C[C@@H]2O [Paclitaxel nanoparticles, paclitaxel]

- transdermal flux of the paclitaxel through the skin (epidermis and dermis) [4]: less than 0.01 μg/cm^2
Structure (SMILES): CC(=O)O[C@H]1C(=O)[C@@]2(C)[C@H]([C@H](OC(=O)c3ccccc3)[C@]3(O)C[C@H](OC(=O)[C@H](O)[C@@H](NC(=O)c4ccccc4)c4ccccc4)C(C)=C1C3(C)C)[C@]1(OC(C)=O)CO[C@@H]1C[C@@H]2O [Paclitaxel, paclitaxel]

- Particle size, Mean (number-weighted differential distribution) [1]: 0.861 μm
- Particle size, Median (number-weighted differential distribution) [1]: 0.710 μm
- Particle size, Mode (number-weighted differential distribution) [1]: 0.572 μm
Structure (SMILES): CC(=O)O[C@H]1C(=O)[C@@]2(C)[C@H]([C@H](OC(=O)c3ccccc3)[C@]3(O)C[C@H](OC(=O)[C@H](O)[C@@H](NC(=O)c4ccccc4)c4ccccc4)C(C)=C1C3(C)C)[C@]1(OC(C)=O)CO[C@@H]1C[C@@H]2O [Paclitaxel nanoparticles lot used in formulas listed in Tabl] [listing 2 of 2 here]
